Broadly, the IC50 is the concentration needed to halve the response being measured. High values mean a need for much substance, low ones inhibition by little substance.

The text below walks through data of US20260297109A1, “COMPOUNDS AS SUMO ACTIVATING ENZYME INHIBITORS” (WIGEN BIOMEDICINE TECHNOLOGY (SHANGHAI) CO., LTD., priority 2022, published 2026).

The structures appear in SMILES notation.

One assay addresses T1, SAE (Homo sapiens, UniProt Q9UBT2).
T1 construct: endogenous in cells; host or cells: HCT116
T1 sequence (Q9UBT2 1-640): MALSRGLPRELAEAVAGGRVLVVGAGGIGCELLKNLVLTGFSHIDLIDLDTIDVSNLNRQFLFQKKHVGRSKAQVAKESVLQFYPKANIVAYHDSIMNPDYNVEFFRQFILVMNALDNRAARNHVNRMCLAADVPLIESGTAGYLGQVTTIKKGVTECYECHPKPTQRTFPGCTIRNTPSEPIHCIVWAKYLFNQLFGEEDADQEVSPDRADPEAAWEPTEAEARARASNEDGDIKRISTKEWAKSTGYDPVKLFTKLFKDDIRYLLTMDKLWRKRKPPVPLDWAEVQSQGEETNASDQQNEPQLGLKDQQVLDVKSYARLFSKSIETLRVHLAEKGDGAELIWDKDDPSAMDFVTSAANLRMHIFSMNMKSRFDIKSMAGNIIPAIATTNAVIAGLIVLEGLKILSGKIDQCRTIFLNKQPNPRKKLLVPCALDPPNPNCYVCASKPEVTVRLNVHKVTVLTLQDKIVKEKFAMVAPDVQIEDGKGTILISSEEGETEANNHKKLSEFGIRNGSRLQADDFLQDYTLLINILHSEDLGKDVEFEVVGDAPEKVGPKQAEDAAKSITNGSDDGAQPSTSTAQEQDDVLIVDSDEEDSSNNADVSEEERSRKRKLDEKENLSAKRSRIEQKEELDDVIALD
T1 sequence (Q9UBE0 1-346): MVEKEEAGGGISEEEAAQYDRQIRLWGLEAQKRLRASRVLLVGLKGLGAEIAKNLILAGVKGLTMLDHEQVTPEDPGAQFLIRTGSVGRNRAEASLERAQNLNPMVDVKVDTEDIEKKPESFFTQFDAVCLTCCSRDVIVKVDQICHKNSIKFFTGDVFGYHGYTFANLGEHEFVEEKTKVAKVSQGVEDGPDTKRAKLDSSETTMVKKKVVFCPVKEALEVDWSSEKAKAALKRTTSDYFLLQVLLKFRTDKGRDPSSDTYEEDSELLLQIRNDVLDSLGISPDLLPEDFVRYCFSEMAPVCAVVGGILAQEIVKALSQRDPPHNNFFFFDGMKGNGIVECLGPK
Briefly: SUMO IF: in vitro inhibitory activity assay against SAE in HCT116 cells (SUMO-2/3 immunofluorescence). The settings on record: class symbols, 6 h at 37° C. Type of assay: cell-based. In short, it runs like this:
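HCT116 cells were treated with compound for 6 h at 37 °C, then PFA-fixed, Triton-permeabilised and BSA-blocked. They were stained overnight at 4 °C with anti-SUMO-2/3 (18H8) rabbit mAb (1:400), then with FITC anti-rabbit IgG (1:300). Fluorescence versus DMSO gave inhibition rate and IC50.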
The molecule `NS(=O)(=O)OC[C@H]1[C@H](F)[C@@H](Nc2ncncc2C(=O)c2cc3c(s2)CNCC32NCCc3ccc(Cl)cc32)C[C@@H]1O` (stereo partly drawn) [Compound 582] displayed an IC50 of 50 to 200 nM.
Same read-out and setting: the figure for `NS(=O)(=O)OC[C@H]1[C@H](F)[C@@H](Nc2ncncc2C(=O)c2cc3c(s2)CSC[C@@]32NCCc3ccc(F)cc32)C[C@@H]1O` [Compound 298] is > 200 nM.
Still for that read-out and setting: the figure for `NS(=O)(=O)OC[C@H]1[C@H](F)[C@@H](Nc2ncncc2C(=O)c2nc3c(s2)CSC[C@]32NCCc3ccc(Cl)cc32)C[C@@H]1O` [Compound 593] is 50 to 200 nM; for `CN1Cc2sc(C(=O)c3cncnc3N[C@H]3C[C@H](O)[C@@H](COS(N)(=O)=O)[C@@H]3F)cc2C2(C1)OCCc1ccccc12` (stereo partly drawn) [Compound 717] it is 50 to 200 nM; for `NS(=O)(=O)OC[C@H]1[C@H](F)[C@@H](Nc2ncncc2C(=O)c2cc3c(s2)CCCC32NCCc3cnc(Cl)cc32)C[C@@H]1O` (stereo partly drawn) [Compound 597] it is 50 to 200 nM.
For `CC1Cc2ccc(Cl)cc2C2(CCCc3sc(C(=O)c4cncnc4N[C@H]4C[C@H](O)[C@@H](COS(N)(=O)=O)[C@@H]4F)cc32)N1` (stereo partly drawn) [Compound 1023], the IC50 is 50 to 200 nM.
Still for that read-out and setting: the figure for `NS(=O)(=O)OC[C@H]1[C@H](F)[C@@H](Nc2ncncc2C(=O)c2cc(C3NCCc4ccc(Cl)cc43)c(C3CC3)s2)C[C@@H]1O` (stereo partly drawn) [Compound 984] is 50 to 200 nM; for `NS(=O)(=O)OC[C@H]1[C@H](F)[C@@H](Nc2ncncc2C(=O)c2cc3c(s2)CCC32OCCc3ccc(Cl)cc32)C[C@@H]1O` (stereo partly drawn) [Compound 168] it is ≤ 50 nM; for `CN1Cc2sc(C(=O)c3cncnc3N[C@H]3C[C@H](O)[C@@H](COS(N)(=O)=O)[C@@H]3F)cc2[C@]2(C1)OCCc1ccccc12` [Compound 719] it is 50 to 200 nM.
Consider `NS(=O)(=O)OC[C@H]1[C@H](F)[C@@H](Nc2ncncc2C(=O)c2nc3c(s2)CCCC32NCCc3ccc(Cl)cc32)C[C@@H]1O` (stereo partly drawn) [Compound 585], for which the IC50 was > 200 nM.
The same measure, in the same setting: the result for `NS(=O)(=O)OC[C@H]1[C@H](F)[C@@H](Nc2ncncc2C(=O)c2cc3c(s2)CCC[C@]32NCCc3cc(Cl)ncc32)C[C@@H]1O` [Compound 679] reads 50 to 200 nM; that for `COc1sc(C(=O)c2cncnc2N[C@H]2C[C@H](O)[C@@H](COS(N)(=O)=O)[C@@H]2F)cc1C1NCCc2ccc(Cl)cc21` (stereo partly drawn) [Compound 262], 50 to 200 nM; that for `NS(=O)(=O)OC[C@H]1[C@H](F)[C@@H](Nc2ncncc2C(=O)c2cc3c(s2)CCCC32NCC(=O)c3ccc(Cl)cc32)C[C@@H]1O` (stereo partly drawn) [Compound 125], 50 to 200 nM.
On the same count and under the same terms, the result for `NS(=O)(=O)CC[C@H]1[C@H](F)[C@@H](Nc2ncncc2C(=O)c2cc3c(s2)CCC[C@@]32NCCc3ccc(Cl)cc32)C[C@@H]1O` [Compound 637] reads > 200 nM; that for `COc1ccc2c(c1)C1(CCc3sc(C(=O)c4cncnc4N[C@H]4C[C@H](O)[C@@H](COS(N)(=O)=O)[C@@H]4F)cc31)NCC2` (stereo partly drawn) [Compound 150], > 200 nM; that for `NS(=O)(=O)OC[C@H]1[C@H](F)[C@@H](Nc2ncncc2C(=O)c2cc3c(s2)CCC32NCCc3cc(Cl)ncc32)C[C@@H]1O` (stereo partly drawn) [Compound 161], 50 to 200 nM.
Turning to `NS(=O)(=O)OC[C@H]1[C@H](F)[C@@H](Nc2ncncc2C(=O)c2cc3c(s2)CCCC32NCCc3ccc(F)cc32)C[C@@H]1O` (stereo partly drawn) [Compound 91], the IC50 was 50 to 200 nM.
Still for that read-out and setting: the result for `NS(=O)(=O)OC[C@H]1[C@H](F)[C@@H](Nc2ncncc2C(=O)c2cc3c(s2)CCCC32NCCc3cc(Cl)c(F)cc32)C[C@@H]1O` (stereo partly drawn) [Compound 117] reads 50 to 200 nM; that for `CC(C)N1Cc2sc(C(=O)c3cncnc3N[C@H]3C[C@H](O)[C@@H](COS(N)(=O)=O)[C@@H]3F)cc2[C@@]2(C1)OCCc1ccc(Cl)cc12` [Compound 736], > 200 nM; that for `NS(=O)(=O)OC[C@H]1[C@H](F)[C@@H](Nc2ncncc2C(=O)c2cc([C@@H]3NCCc4ccc(Cl)cc43)c(C3CC3)s2)C[C@@H]1O` [Compound 985], 50 to 200 nM.
Same read-out and setting: the figure for `CC1=C[C@@]2(NCCc3ccc(F)cc32)c2cc(C(=O)c3cncnc3N[C@H]3C[C@H](O)[C@@H](COS(N)(=O)=O)[C@@H]3F)sc21` [Compound 622] is > 200 nM; for `CN(C)c1sc(C(=O)c2cncnc2N[C@H]2C[C@H](O)[C@@H](COS(N)(=O)=O)[C@@H]2F)cc1C1NCCc2ccc(Cl)cc21` (stereo partly drawn) [Compound 263] it is 50 to 200 nM.
The same measure, in the same setting: the result for `NS(=O)(=O)OC[C@H]1[C@H](F)[C@@H](Nc2ncncc2C(=O)c2cc3c(s2)C(F)(F)CC32NCCc3ccc(Cl)cc32)C[C@@H]1O` (stereo partly drawn) [Compound 327] reads 50 to 200 nM; that for `NS(=O)(=O)OC[C@H]1[C@H](F)[C@@H](Nc2ncncc2C(=O)c2cc3c(s2)CN(C2CC2)CC32NCCc3ccc(Cl)cc32)C[C@@H]1O` (stereo partly drawn) [Compound 579], ≤ 50 nM; that for `NS(=O)(=O)OC[C@H]1[C@H](F)[C@@H](Nc2ncncc2C(=O)c2cc3c(s2)COCC32NCCc3cc(F)c(Cl)cc32)C[C@@H]1O` (stereo partly drawn) [Compound 570], 50 to 200 nM.
As for `NS(=O)(=O)OC[C@H]1[C@H](F)[C@@H](Nc2ncncc2C(=O)c2cc3c(s2)COC[C@@]32NCCc3ccc(Cl)c(Cl)c32)C[C@@H]1O` [Compound 559], the IC50 is > 200 nM.
Same read-out and setting: the result for `CCN1Cc2sc(C(=O)c3cncnc3N[C@H]3C[C@H](O)[C@@H](COS(N)(=O)=O)[C@@H]3F)cc2[C@@]2(C1)OCCc1ccc(F)cc12` [Compound 727] reads > 200 nM.
Still for that read-out and setting: the result for `NS(=O)(=O)OC[C@H]1[C@H](F)[C@@H](Nc2ncncc2C(=O)c2cc3c(s2)COC32NCCc3ccc(Cl)cc32)C[C@@H]1O` (stereo partly drawn) [Compound 164] reads 50 to 200 nM; that for `NS(=O)(=O)OC[C@H]1[C@H](F)[C@@H](Nc2ncncc2C(=O)c2cc3c(s2)CC2(CC2)CC32NCCc3ccc(Cl)cc32)C[C@@H]1O` (stereo partly drawn) [Compound 615], ≤ 50 nM; that for `NS(=O)(=O)OC[C@H]1[C@H](F)[C@@H](Nc2ncncc2C(=O)c2cc3c(s2)CCC32NCCc3ccc(C(F)(F)F)cc32)C[C@@H]1O` (stereo partly drawn) [Compound 151], 50 to 200 nM.
The same measure, in the same setting: the result for `NS(=O)(=O)OC[C@H]1[C@H](F)[C@@H](Nc2ncncc2C(=O)c2cc3c(s2)CC[C@]32OCCc3ccc(Cl)cc32)C[C@@H]1O` [Compound 707] reads ≤ 50 nM; that for `NS(=O)(=O)OC[C@H]1[C@H](F)[C@@H](Nc2ncncc2C(=O)c2cc3c(s2)CCCC32OCCc3ccc(Cl)cc32)C[C@@H]1O` (stereo partly drawn) [Compound 126], ≤ 50 nM; that for `NS(=O)(=O)OC[C@H]1[C@H](F)[C@@H](Nc2ncncc2C(=O)c2cc3c(s2)C(F)=C[C@]32NCCc3ccc(F)cc32)C[C@@H]1O` [Compound 620], 50 to 200 nM.
For the molecule `NS(=O)(=O)OC[C@H]1[C@H](F)[C@@H](Nc2ncncc2C(=O)c2nc3c(s2)CSCC32NCCc3ccc(Cl)cc32)C[C@@H]1O` (stereo partly drawn) [Compound 591], the IC50 is > 200 nM.
Same read-out and setting: the result for `NS(=O)(=O)OC[C@H]1[C@H](F)[C@@H](Nc2ncncc2C(=O)c2cc(C3NCCc4ccc(Cl)cc43)c(Cl)s2)C[C@@H]1O` (stereo partly drawn) [Compound 258] reads 50 to 200 nM; that for `NS(=O)(=O)OC[C@H]1[C@H](F)[C@@H](Nc2ncncc2C(=O)c2nc3c(s2)CSC[C@@]32NCCc3ccc(Cl)cc32)C[C@@H]1O` [Compound 592], > 200 nM; that for `NS(=O)(=O)OC[C@H]1[C@H](F)[C@@H](Nc2ncncc2C(=O)c2cc3c(s2)CSCC32NCCc3ccc(Cl)nc32)C[C@@H]1O` (stereo partly drawn) [Compound 609], 50 to 200 nM.
On the same count and under the same terms, the figure for `NS(=O)(=O)OC[C@H]1[C@H](F)[C@@H](Nc2ncncc2C(=O)c2cc3c(s2)CCC[C@]32NCCc3ccccc32)C[C@@H]1O` [Compound 87] is ≤ 50 nM.

The same assay, now with this note: numeric values, 6 h at 37° C.
As to `CN1Cc2sc(C(=O)c3cncnc3N[C@H]3C[C@H](O)[C@@H](COS(N)(=O)=O)[C@@H]3F)cc2[C@]2(C1)NCCc1ccc(Cl)cc12` [Compound 578], the IC50 amounted to 29.2 nM.
On the same count and under the same terms, the result for `NS(=O)(=O)OC[C@H]1[C@H](F)[C@@H](Nc2ncncc2C(=O)c2cc3c(s2)CN(CC(F)(F)F)C[C@]32NCCc3ccc(Cl)cc32)C[C@@H]1O` [Compound 653] reads 25.9 nM; that for `[2H]C1([2H])CN[C@]2(CCCc3sc(C(=O)c4cncnc4N[C@H]4C[C@H](O)[C@@H](COS(N)(=O)=O)[C@@H]4F)cc32)c2cc(Cl)ccc21` [Compound 665], 20.6 nM.
Still for that read-out and setting: the figure for `C#CCN1Cc2sc(C(=O)c3cncnc3N[C@H]3C[C@H](O)[C@@H](COS(N)(=O)=O)[C@@H]3F)cc2[C@@]2(C1)NCCc1ccc(Cl)cc12` [Compound 658] is > 1000 nM.
